According to the supplement of paper PMC11061612:

Legend:
[1] = tested on: SU-DHL-6 (B-Cell Non-Hodgkin's Lymphoma); assay: combination Emax (second highest fraction inhibited in the dose matrix, 72 h); higher = more inhibition; extreme values may be limits of the assay
How it was run: (§1)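 Cell lines in DMEM/F12 or RPMI with 10% FBS were plated in 1536-well plates, held 24 hours at 37°C, 5% CO2, then given two-drug dose matrices for 72 hours (DMSO typically 0.2%). Viability was read by CellTiter-Glo 2.0 luminescence and scaled as inhibition from 0 (vehicle wells) to 1 (blank wells). Combination Emax is the second-highest inhibition in the matrix; Bliss excess is observed combination effect minus expected EA + EB − EA·EB, EA and EB being single-agent effects.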

[2] = tested on: HO-1-u-1 (Oral Cavity Carcinoma); assay: as above
How it was run: as §1

[3] = tested on: EN (Endometrial Carcinoma); assay: as above
How it was run: as §1

Mewo (Melanoma) = assay: as above
How it was run: as §1

[4] = tested on: LU-139 (Small Cell Lung Carcinoma); assay: as above
How it was run: as §1

[5] = tested on: SW1271 (Small Cell Lung Carcinoma); assay: as above
How it was run: as §1

HMV-II (Melanoma) = assay: as above
How it was run: as §1

[6] = tested on: RKO (Colorectal Carcinoma); assay: as above
How it was run: as §1

NCI-H2461 (Mesothelioma) = assay: as above
How it was run: as §1

SH-4 (Melanoma) = assay: as above
How it was run: as §1

[7] = tested on: SUP-T1 (T-Lymphoblastic Leukemia); assay: Bliss excess, mean over the matrix (fraction); higher = more synergy
How it was run: as §1

[8] = tested on: SK-OV-3 (Ovarian Carcinoma); assay: as above
How it was run: as §1

[9] = tested on: LoVo (Colorectal Carcinoma); assay: as above
How it was run: as §1

[10] = tested on: LU-139 (Small Cell Lung Carcinoma); assay: as above
How it was run: as §1

[11] = tested on: 8305C (Thyroid Gland Carcinoma); assay: as above
How it was run: as §1

[12] = tested on: HDLM-2 (Hodgkin's Lymphoma); assay: as above
How it was run: as §1

NCI-H28 (Mesothelioma) = assay: as above
How it was run: as §1

[13] = tested on: Hs-633T (Other Solid Carcinomas); assay: as above
How it was run: as §1

[14] = tested on: RKO (Colorectal Carcinoma); assay: as above
How it was run: as §1

NB14 (Neuroblastoma) = assay: as above
How it was run: as §1
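Wherever Bliss excess, mean over the matrix is given: after 72 h of two-drug dosing.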

Row | SMILES | combination Emax [1] | combination Emax [2] | combination Emax [3] | combination Emax (Mewo (Melanoma)) | combination Emax [4] | combination Emax [5] | combination Emax (HMV-II (Melanoma)) | combination Emax [6] | combination Emax (NCI-H2461 (Mesothelioma)) | combination Emax (SH-4 (Melanoma)) | Bliss excess [7] | Bliss excess [8] | Bliss excess [9] | Bliss excess [10] | Bliss excess [11] | Bliss excess [12] | Bliss excess (NCI-H28 (Mesothelioma)) | Bliss excess [13] | Bliss excess [14] | Bliss excess (NB14 (Neuroblastoma))
1 | C=CCn1c(=O)c2cnc(Nc3ccc(N4CCN(C)CC4)cc3)nc2n1-c1cccc(C(C)(C)O)n1 [AZD1775] + Nc1ccn([C@@H]2O[C@H](CO)[C@@H](O)C2(F)F)c(=O)n1 [Gemcitabine] (first compound max 1 µM, partner max 0.3 µM) | 0.958 | 0.693 | 0.581 | 0.583 | 0.795 | 0.617 | 0.632 | 0.882 | 0.63 | 0.577 | -0.047 | -0.0635 | -0.0005 | -0.0304 | -0.0524 | -0.0627 | -0.0576 | 0.0094 | -0.0367 | 
2 | CN(CCO)CC[C@H](CSc1ccccc1)Nc1ccc(S(=O)(=O)NC(=O)c2ccc(N3CCC([C@@H](O)c4ccccc4-c4ccc(Cl)cc4)CC3)cc2)cc1S(=O)(=O)C(F)(F)F [AZD4320] + CC(=O)O[C@H]1C(=O)[C@@]2(C)[C@H]([C@H](OC(=O)c3ccccc3)[C@]3(O)C[C@H](OC(=O)[C@H](O)[C@@H](NC(=O)c4ccccc4)c4ccccc4)C(C)=C1C3(C)C)[C@]1(OC(C)=O)CO[C@@H]1C[C@@H]2O [Paclitaxel] (first compound max 1 µM, 7x7, partner max 3 µM) | 1 | 0.965 | 0.757 | 0.78 | 0.964 | 0.927 | 0.853 | 1 | 0.75 | 0.531 | -0.024 | 0.254 | -0.0406 | 0.0242 | 0.0435 | 0.0159 | 0.0394 | 0.0124 | 0.0012 | 0.0064
3 | CN(CCO)CC[C@H](CSc1ccccc1)Nc1ccc(S(=O)(=O)NC(=O)c2ccc(N3CCC([C@@H](O)c4ccccc4-c4ccc(Cl)cc4)CC3)cc2)cc1S(=O)(=O)C(F)(F)F [AZD4320] + CS(=O)(=O)CCNCc1ccc(-c2ccc3ncnc(Nc4ccc(OCc5cccc(F)c5)c(Cl)c4)c3c2)o1 [Lapatinib] (first compound max 1 µM, 7x7, partner max 10 µM) | 0.997 | 0.983 | 0.229 | 0.492 | 0.985 | 0.484 | 0.773 | 0.477 | 0.512 | 0.239 | 0.0226 | -0.0007 | -0.0216 | 0.0054 | -0.0526 | -0.0018 | 0.0075 | -0.0023 | 0.0405 | 0.0356
4 | CN(CCO)CC[C@H](CSc1ccccc1)Nc1ccc(S(=O)(=O)NC(=O)c2ccc(N3CCC([C@@H](O)c4ccccc4-c4ccc(Cl)cc4)CC3)cc2)cc1S(=O)(=O)C(F)(F)F [AZD4320] + C[C@@H](Nc1cc(F)cc(F)c1)c1cc(C(=O)N(C)C)cc2c(=O)cc(N3CCOCC3)oc12 [AZD8186] (first compound max 1 µM, 7x7, partner max 3 µM) | 1 | 0.369 | 0.354 | 0.332 | 0.943 | 0.649 | 0.383 | 0.32 | 0.337 | 0.308 | -0.0192 | 0.0008 | 0.0355 | -0.0107 | 0.0676 | 0.0434 | 0.0474 | 0.0082 | -0.0164 | 0.0025
5 | CN(CCO)CC[C@H](CSc1ccccc1)Nc1ccc(S(=O)(=O)NC(=O)c2ccc(N3CCC([C@@H](O)c4ccccc4-c4ccc(Cl)cc4)CC3)cc2)cc1S(=O)(=O)C(F)(F)F [AZD4320] + Nc1ccn([C@@H]2O[C@H](CO)[C@@H](O)C2(F)F)c(=O)n1 [Gemcitabine] (first compound max 1 µM, 7x7, partner max 0.3 µM) | 0.998 | 0.563 | 0.337 | 0.451 | 0.961 | 0.872 | 0.619 | 0.928 | 0.641 | 0.642 | 0.0225 | -0.0695 | -0.0476 | 0.0388 | 0.072 | 0.0204 | 0.0018 | 0.0434 | -0.0195 | 0.0314
6 | Cc1c2c(nn1C)CSCc1cc(n(C)n1)CSc1cc(c3ccccc3c1)OCCCc1c(C(=O)O)n(C)c3c-2c(Cl)ccc13 [AZD5991] + CC(=O)O[C@H]1C(=O)[C@@]2(C)[C@H]([C@H](OC(=O)c3ccccc3)[C@]3(O)C[C@H](OC(=O)[C@H](O)[C@@H](NC(=O)c4ccccc4)c4ccccc4)C(C)=C1C3(C)C)[C@]1(OC(C)=O)CO[C@@H]1C[C@@H]2O [Paclitaxel] (first compound max 1 µM, 7x7, partner max 3 µM) | 1 | 0.752 | 0.878 | 0.692 | 0.649 | 0.472 | 0.598 | 1 | 0.443 | 0.472 | -0.0847 | -0.028 | -0.122 | -0.0361 | -0.0118 | 0.0128 | -0.0549 | 0.005 | 0.0203 | -0.0212
7 | Cc1c2c(nn1C)CSCc1cc(n(C)n1)CSc1cc(c3ccccc3c1)OCCCc1c(C(=O)O)n(C)c3c-2c(Cl)ccc13 [AZD5991] + CS(=O)(=O)CCNCc1ccc(-c2ccc3ncnc(Nc4ccc(OCc5cccc(F)c5)c(Cl)c4)c3c2)o1 [Lapatinib] (first compound max 1 µM, 7x7, partner max 10 µM) | 1 | 0.713 | 0.519 | 0.481 | 0.201 | 0.424 | 0.64 | 0.455 | 0.332 | 0.197 | -0.0863 | 0.0591 | -0.0052 | -0.0068 | -0.042 | 0.0262 | 0.0147 | -0.008 | 0.0196 | 0.0335
8 | Cc1c2c(nn1C)CSCc1cc(n(C)n1)CSc1cc(c3ccccc3c1)OCCCc1c(C(=O)O)n(C)c3c-2c(Cl)ccc13 [AZD5991] + Nc1ccn([C@@H]2O[C@H](CO)[C@@H](O)C2(F)F)c(=O)n1 [Gemcitabine] (first compound max 1 µM, 7x7, partner max 0.3 µM) | 1 | 0.378 | 0.602 | 0.465 | 0.855 | 0.604 | 0.595 | 0.936 | 0.553 | 0.495 | -0.0332 | -0.0401 | -0.0693 | -0.0133 | -0.121 | 0.0014 | -0.061 | -0.0611 | -0.0368 | -0.0213
9 | C[C@@H]1COCCN1c1cc(C2([S@](C)(=N)=O)CC2)nc(-c2ccnc3[nH]ccc23)n1 [AZD6738] + C1CC(C1)(C(=O)[O-])C(=O)[O-].N.N.[Pt+2] [Carboplatin] (first compound max 10 µM, 7x7, partner max 10 µM) | 0.285 | 0.75 | 0.537 | 0.526 | 0.258 | 0.356 | 0.454 | 0.932 | 0.646 | 0.277 | -0.0298 | -0.0788 | -0.0743 | 0.0013 | -0.046 | 0.0001 | -0.0606 | -0.0264 | -0.0594 | -0.0044
10 | C[C@@H]1COCCN1c1cc(C2([S@](C)(=N)=O)CC2)nc(-c2ccnc3[nH]ccc23)n1 [AZD6738] + Nc1ccn([C@@H]2O[C@H](CO)[C@@H](O)C2(F)F)c(=O)n1 [Gemcitabine] (first compound max 10 µM, 7x7, partner max 0.3 µM) | 0.945 | 0.926 | 0.66 | 0.768 | 0.841 | 0.7 | 0.724 | 0.954 | 0.714 | 0.623 | 0.0041 | 0.0331 | -0.0243 | 0.0146 | 0.0252 | 0.0754 | 0.0086 | 0.0444 | -0.0088 | 0.04
11 | Cc1cc2ncnn2cc1Nc1ncc2c(n1)n(C1CCOCC1)c(=O)n2C [AZD7648] + COc1cc([C@@H]2c3cc4c(cc3[C@@H](O[C@@H]3O[C@@H]5CO[C@@H](C)O[C@H]5[C@H](O)[C@H]3O)[C@H]3COC(=O)[C@H]23)OCO4)cc(OC)c1O [Etoposide] (first compound max 10 µM, 7x7, partner max 10 µM) | 0.991 | 0.866 | 0.481 | 0.71 | 0.875 | 0.475 | 0.655 | 0.829 | 0.553 | 0.492 | 0.07 | -0.0497 | 0.0689 | 0.101 | -0.0413 | -0.0015 | 0.0548 | 0.174 | 0.135 | 0.0704
12 | C[C@@H](Nc1cc(F)cc(F)c1)c1cc(C(=O)N(C)C)cc2c(=O)cc(N3CCOCC3)oc12 [AZD8186] + C1CN(CCC1(C(=O)N[C@@H](CCO)C2=CC=C(C=C2)Cl)N)C3=NC=NC4=C3C=CN4 [AZD5363] (first compound max 10 µM, 7x7, partner max 10 µM) | 1 | 0.752 | 0.536 | 0.345 | 0.0726 | 0.289 | 0.229 | 0.433 | 0.457 | 0.214 | -0.0718 | -0.064 | -0.0372 | -0.0299 | -0.0642 | -0.0194 | -0.0165 | -0.0205 | 0.0284 | -0.0318
13 | N#Cc1cnc(Nc2cc(NC[C@H]3CNCCO3)c(C(F)(F)F)cn2)cn1 [SRA737] + Nc1ccn([C@@H]2O[C@H](CO)[C@@H](O)C2(F)F)c(=O)n1 [Gemcitabine] (first compound max 10 µM, 7x7, partner max 0.3 µM) |  | 0.826 | 0.634 | 0.788 | 0.832 | 0.647 | 0.64 | 0.923 | 0.683 | 0.577 | -0.0658 | 0.0128 | -0.0137 | 0.0091 | -0.0158 | 0.0526 | 0.0118 | 0.0301 | -0.0179 | 0.0218
